# Source: patent publication US9833497B2, “Human originated EGF domain proteins and use of the same” (CHENGDU SOURCEBIO LIMITED-LIABILITY COMPANY, priority 2013, dated 2017)
# Tests used:
# Assay type in all cases: cell-based
# Proteus mirabilis = assay: MIC against Gram-negative bacteria: Proteus mirabilis; details: 5×10^5 CFU/mL
# Outline: (§1)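 Bacteria grown in LB at 37° C with shaking to McFarland 0.5, pelleted and resuspended in fresh LB, then seeded at 5×10^5 CFU/mL per well. Purified recombinant human EGF domain proteins were two-fold serially diluted in triplicate and plates shaken at 37° C, 175 rpm. MIC is the lowest protein concentration with no bacterial growth.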
# Citrobacter diversus = assay: MIC against Gram-negative bacteria: Citrobacter diversus; details: 5×10^5 CFU/mL
# Outline: as §1
# Enterobacter cloacae = assay: MIC against Gram-negative bacteria: Enterobacter cloacae; details: 5×10^5 CFU/mL
# Outline: as §1
# Pseudomonas aeruginosa = assay: MIC against Gram-negative bacteria: Pseudomonas aeruginosa; details: 5×10^5 CFU/mL
# Outline: as §1
# Aeromonas hydrophila = assay: MIC against Gram-negative bacteria: Aeromonas hydrophila; details: 5×10^5 CFU/mL
# Outline: as §1
# Proteus vulgaris = assay: MIC against Gram-negative bacteria: Proteus vulgaris; details: 5×10^5 CFU/mL
# Outline: as §1
# E. coli BL21 = assay: MIC against Gram-negative bacteria: E. coli BL21; details: 5×10^5 CFU/mL
# Outline: as §1
# Serratia marcescens = assay: MIC against Gram-negative bacteria: Serratia marcescens; details: 5×10^5 CFU/mL
# Outline: as §1
# Klebsiella pneumonia = assay: MIC against Gram-negative bacteria: Klebsiella pneumonia; details: 5×10^5 CFU/mL
# Outline: as §1
# E. coli DH5α = assay: Antibacterial activity: MIC and growth curve against E. coli DH5α in 96-well plate; details: minimal inhibitory concentration against E. coli DH5α; 96-well plate, 5×10^5 CFU/mL, 37° C., judged after 8 h
# Outline: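 Log-phase bacteria (OD600 ~0.5) resuspended in LB at 5×10^5 CFU/mL, exposed to recombinant protein at 50, 25, 12.5 μg/mL final in triplicate, 37 °C shaking at 175 rpm. OD600 read every 30 min; MIC is lowest concentration showing no growth.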
# Moraxella catarrhalis = assay: MIC against Gram-negative bacteria: Moraxella catarrhalis; details: 5×10^5 CFU/mL
# Outline: as §1
# [1] = 10 h cultivation at 37° C., two-fold serial dilution
# [2] = E. coli BL21, 10 h cultivation at 37° C.
substance,measurement,setting,value
PRT482 (ECIDDETEEICGGHGKCYCGNCYCKAGWHGDKCE; listed as Homo sapiens),MIC against P. mirabilis,"Proteus mirabilis; 96-well plate, 37° C., 10 h",25 mg/L
same,MIC against C. diversus,"Citrobacter diversus; 96-well plate, 37° C., 10 h",25 mg/L
same,MIC against E. cloacae,"Enterobacter cloacae; 96-well plate, 37° C., 10 h",25 mg/L
same,MIC against P. aeruginosa,"Pseudomonas aeruginosa; 96-well plate, 37° C., 10 h",50 mg/L
same,MIC against A. hydrophila,"Aeromonas hydrophila; 96-well plate, 37° C., 10 h",50 mg/L
same,MIC against P. vulgaris,"Proteus vulgaris; 96-well plate, 37° C., 10 h",50 mg/L
same,MIC against E. coli BL21,"E. coli BL21; 96-well plate, 37° C., 10 h",12.5 mg/L
same,MIC against S. marcescens,"Serratia marcescens; 96-well plate, 37° C., 10 h",25 mg/L
same,MIC against K. pneumonia,"Klebsiella pneumonia; 96-well plate, 37° C., 10 h",12.5 mg/L
same,MIC,E. coli DH5α,50 mg/L
same,MIC against M. catarrhalis,"Moraxella catarrhalis; 96-well plate, 37° C., 10 h",12.5 mg/L
PRT1056 (DQDDCAPVGCSMYARCISEGEDATCQCLKGFAGDGKLCS; listed as Homo sapiens),MIC P. mirabilis,Proteus mirabilis; [1],50 mg/L
same,MIC C. diversus,Citrobacter diversus; [1],50 mg/L
same,MIC E. cloacae,Enterobacter cloacae; [1],50 mg/L
same,MIC P. aeruginosa,Pseudomonas aeruginosa; [1],12.5 mg/L
same,MIC A. hydrophila,Aeromonas hydrophila; [1],12.5 mg/L
same,MIC P. vulgaris,Proteus vulgaris; [1],12.5 mg/L
same,MIC E. coli BL21,E. coli BL21; [1],25 mg/L
same,MIC S. marcescens,Serratia marcescens; [1],25 mg/L
same,MIC K. pneumonia,Klebsiella pneumonia; [1],25 mg/L
same,MIC,E. coli DH5α,50 mg/L
same,MIC M. catarrhalis,Moraxella catarrhalis; [1],12.5 mg/L
PRT879 (TLKQCASAPCRNGGVCREGWNRFICDCIGTGFLGRVCE; listed as Homo sapiens),MIC (μg/mL) P. mirabilis,"Proteus mirabilis; P. mirabilis, 10 h cultivation at 37° C.",12.5 µg/mL
same,MIC (μg/mL) C. diversus,"Citrobacter diversus; C. diversus, 10 h cultivation at 37° C.",25 µg/mL
same,MIC (μg/mL) E. cloacae,"Enterobacter cloacae; E. cloacae, 10 h cultivation at 37° C.",25 µg/mL
same,MIC (μg/mL) P. aeruginosa,"Pseudomonas aeruginosa; P. aeruginosa, 10 h cultivation at 37° C.",12.5 µg/mL
same,MIC (μg/mL) A. hydrophila,"Aeromonas hydrophila; A. hydrophila, 10 h cultivation at 37° C.",12.5 µg/mL
same,MIC (μg/mL) P. vulgaris,"Proteus vulgaris; P. vulgaris, 10 h cultivation at 37° C.",12.5 µg/mL
same,MIC (μg/mL) E. coli BL21,E. coli BL21; [2],50 µg/mL
same,MIC (μg/mL) S. marcescens,"Serratia marcescens; S. marcescens, 10 h cultivation at 37° C.",25 µg/mL
same,MIC (μg/mL) K. pneumonia,"Klebsiella pneumonia; K. pneumonia, 10 h cultivation at 37° C.",12.5 µg/mL
same,MIC,E. coli DH5α,25 mg/L
same,MIC (μg/mL) M. catarrhalis,"Moraxella catarrhalis; M. catarrhalis, 10 h cultivation at 37° C.",12.5 µg/mL
PRT718 (MTLCSALNCQYQCHETPYGGACFCPPGYIINHNDSRTCV; listed as Homo sapiens),MIC P. mirabilis,"Proteus mirabilis; 96-well plate, 37° C., 10 h",25 mg/L
same,MIC C. diversus,"Citrobacter diversus; 96-well plate, 37° C., 10 h",25 mg/L
same,MIC E. cloacae,"Enterobacter cloacae; 96-well plate, 37° C., 10 h",25 mg/L
same,MIC P. aeruginosa,"Pseudomonas aeruginosa; 96-well plate, 37° C., 10 h",50 mg/L
same,MIC A. hydrophila,"Aeromonas hydrophila; 96-well plate, 37° C., 10 h",25 mg/L
same,MIC P. vulgaris,"Proteus vulgaris; 96-well plate, 37° C., 10 h",50 mg/L
same,MIC E. coli BL21,"E. coli BL21; 96-well plate, 37° C., 10 h",25 mg/L
same,MIC S. marcescens,"Serratia marcescens; 96-well plate, 37° C., 10 h",12.5 mg/L
same,MIC K. pneumonia,"Klebsiella pneumonia; 96-well plate, 37° C., 10 h",25 mg/L
same,MIC,E. coli DH5α,12.5 mg/L
same,MIC M. catarrhalis,"Moraxella catarrhalis; 96-well plate, 37° C., 10 h",12.5 mg/L
PRT107 (DRCLPSYCEHGGECSQSWDTFSCDCLGTGYTGETC; listed as Homo sapiens),MIC (μg/mL) P. mirabilis,"Proteus mirabilis; Proteus mirabilis, 96-well plate, 37° C., 10 h",25 µg/mL
same,MIC (μg/mL) C. diversus,"Citrobacter diversus; Citrobacter diversus, 96-well plate, 37° C., 10 h",25 µg/mL
same,MIC (μg/mL) E. cloacae,"Enterobacter cloacae; Enterobacter cloacae, 96-well plate, 37° C., 10 h",12.5 µg/mL
same,MIC (μg/mL) P. aeruginosa,"Pseudomonas aeruginosa; Pseudomonas aeruginosa, 96-well plate, 37° C., 10 h",12.5 µg/mL
same,MIC (μg/mL) A. hydrophila,"Aeromonas hydrophila; Aeromonas hydrophila, 96-well plate, 37° C., 10 h",50 µg/mL
same,MIC (μg/mL) P. vulgaris,"Proteus vulgaris; Proteus vulgaris, 96-well plate, 37° C., 10 h",50 µg/mL
same,MIC (μg/mL) E. coli BL21,"E. coli BL21; E. coli BL21, 96-well plate, 37° C., 10 h",12.5 µg/mL
same,MIC (μg/mL) S. marcescens,"Serratia marcescens; Serratia marcescens, 96-well plate, 37° C., 10 h",12.5 µg/mL
same,MIC (μg/mL) K. pneumonia,"Klebsiella pneumonia; Klebsiella pneumonia, 96-well plate, 37° C., 10 h",12.5 µg/mL
same,MIC,E. coli DH5α,12.5 mg/L
same,MIC (μg/mL) M. catarrhalis,"Moraxella catarrhalis; Moraxella catarrhalis, 96-well plate, 37° C., 10 h",12.5 µg/mL
PRT1463 (CDCDTAGSLPGTVCNAKTGQCICKPNVEGRQCNKCLEGNFYLRQNNSFLCLP; listed as Homo sapiens),MIC against P. mirabilis,"Proteus mirabilis; Proteus mirabilis, 10 h cultivation at 37° C.",12.5 mg/L
same,MIC against C. diversus,"Citrobacter diversus; Citrobacter diversus, 10 h cultivation at 37° C.",50 mg/L
same,MIC against E. cloacae,"Enterobacter cloacae; Enterobacter cloacae, 10 h cultivation at 37° C.",50 mg/L
same,MIC against P. aeruginosa,"Pseudomonas aeruginosa; Pseudomonas aeruginosa, 10 h cultivation at 37° C.",12.5 mg/L
same,MIC against A. hydrophila,"Aeromonas hydrophila; Aeromonas hydrophila, 10 h cultivation at 37° C.",12.5 mg/L
same,MIC against P. vulgaris,"Proteus vulgaris; Proteus vulgaris, 10 h cultivation at 37° C.",25 mg/L
same,MIC against E. coli BL21,E. coli BL21; [2],25 mg/L
same,MIC against S. marcescens,"Serratia marcescens; Serratia marcescens, 10 h cultivation at 37° C.",12.5 mg/L
same,MIC against K. pneumonia,"Klebsiella pneumonia; Klebsiella pneumonia, 10 h cultivation at 37° C.",25 mg/L
same,MIC,E. coli DH5α,50 mg/L
same,MIC against M. catarrhalis,"Moraxella catarrhalis; Moraxella catarrhalis, 10 h cultivation at 37° C.",25 mg/L
